Results published in US5994361A, “Substituted purinyl derivatives with immunomodulating activity” (priority 1995, dated 1999).
Entries after “also recorded” stand apart in the source; their conditions may differ.

Experiments:
[1] = system: DA-3 mammary carcinoma; test: Compound #1 with Cytoxan 20 mg/kg against established DA-3 mammary carcinoma (Example 93); format: in vivo; details: compound #1 25 mg/kg i.p. daily + CTX 20 mg/kg i.v.
Procedure: Combination of compound #1 (25 and 50 mg/kg i.p. daily) plus CTX (20 mg/kg i.v. single bolus) was evaluated against day 4 established DA-3 tumors.

[2] = system: Fisher male and female rats; test: In vivo toxicity, repeated intravenous injections (Example 96)
Procedure: The objective of this study was to find the toxic dose of compound #1 after repeated intravenous injections in Fisher male and female rats.
Groups of 3 male rats, and 3 female rats were injected daily i.v. for 5 consecutive days. A first group received 500 mg/kg, a second group 250 mg/kg, and a third group 125 mg/kg. In addition, one male and one female were injected with 1000 mg/kg. An untreated group (male and female) was included in the experiment. For all doses a constant volume of […] was used. Injections were started on day 0 and continued until day 4 (5 days). […] On day 8, the rats were euthanatized and a macroscopic examination of the internal organs was performed.

[3] = system: DA-3 mammary carcinoma; test: Tumor outgrowth of breast carcinoma, with cyclophosphamide (Example 92); format: in vivo, Balb/C mice
Procedure: Balb/C Mice (n-5/Gr) were used along with DA-3 mammary carcinoma cell line. The mice were treated from -2 to 13 days. Animals were monitored for tumor takes/tumor size and body weights for three weeks from Day 0 until Day 21. D0 was the day of tumor cell inoculation and D21 was the day of experiment termination.
Parameters of effect were measured by inhibition of tumor outgrowth and growth rate [tumors measured along the longest axis (length) and the perpendicular shortest axis (width) and the tumor volumes (T.V.±S.E.) was calculated by the formula T.V.=length (cm)×(width cm)^2 /2.] assessment of body weight loss.
The statistical significance of difference between tumor takes and tumor sizes of control-untreated and drug-treated groups is estimated using the Chi-square and Student's t tests respectively with significance determined at n<0.05.
The mice were divided into the following 5 groups:
Gr.1--Normal Saline (0.2 ml/mouse i.p. starting at D2)
Gr.2--CY (100 mg/kg single bolus i.v. at D0)
Gr.3--Compound #1 (25 mg/kg i.p. starting at D2)
Gr.4--Compound #1 (50 mg/kg i.p. starting at D2)
Gr.5--CY (100 mg/kg i.v. at D0+compound #1 50 mg/kg i.p. starting at D2)

[4] = system: T cell activity (ConA), spleen mononuclear leukocytes; test: Mitogenic proliferation on spleen cell suspension, T (ConA); format: cell-based, C57BL-6 mice; details: at 10^-8 - 10^-5 (M); 4320 min
Text: Mitogenic lectin (mitogen) is a protein which binds and cross-links specific cells surface carbohydrate determinants, and will polyclonally stimulate lymphoid cells. Lymphocyte activation by either antigens or mitogens results in intracellular changes and the subsequent development into a lymphoblast. Mitogenic stimulation of lymphocytes in vitro is believed to mimic the series of events which occur in vivo following their stimulation by specific antigens. PHA, ConA, and PWM, LPS mitogens can be used as a measurement of T cell and B cell activity, respectively.
Briefly, spleen mononuclear leukocytes from C57BL-6 mice were incubated in the presence or absence of mitogens with or without tested drugs. After 72 hours or 5 days, ^3 H thymidine incorporation was recorded as an indication of cell transformation and proliferation.
100 μl of a suspension of 2×10^6 cells/ml (2×10^5 cells/well) were incubated in presence of PHA or ConA or PWM or LPS at the following concentrations:
PHA=0.01% final concentration-0.001%
Cells were incubated in presence or absence of drugs for 72 hours. 0.5 or 1 μCi of tritiated thymidine (^3 H) was added per well the last 18 or 6 hours of incubation respectively. Cells were harvested and counted on a Beta counter.

[5] = system: blood cells; test: Immunophenotyping on blood cells, combination with 5 Fluorouracil; format: in vivo, C57/BLJ6 mice; details: N = 4
Procedure: After in vivo drugs analysis, the drugs were evaluated on whole blood for drug stability and toxicity. Furthermore, in vivo/ex vivo analysis was performed on normal and cyclophosphamide immunosuppressed animals plus 5Fu-treated animals. Cell immunophenotyping was performed on mouse-treatedblood and spleen. The following cell surface antigens were analyzed:
CD3 (all T cells), CD4 (T helper/inducer, binds class II-restricted T cells), CD8a (cytotoxic T cells, CTL adhesion), CD11a (T, B, NK, some stem cells, CTL adhesion anti LFA-1α), MAC-1 (monocyte/macrophage), NK (natural killer cells), Ly5 (B cells), CD45 (all leukocytes, protein tyrosine phosphates), and TCR (T cell receptor).
C57/BLJ6 mice (6-8 weeks old) were injected daily for 4 consecutive days, sacrificed at day 5 and immunophenotyping was performed on blood and spleen cells.
The cells were washed twice in PBS, resuspended in 1 ml of RPMI 2% FBS, and incubated for 45 min. on ice with monoclonal antibody. The cells were washed once, fixed with 1% paraformaldehyde, then analyzed using XL Coulter® counter.

[6] = 250 mg/kg and 125 mg/kg i.v., 5 days

`CN(C)c1ncnc2c1ncn2CCCCCOC(=O)N[C@H](CCCNC(=N)N)C(=O)O` [Compound #1, N,N-Dimethylaminopurinyl Pentoxycarbonyl D-Arginine] was tested, and the anti-tumor effect [1] was “no significant effect”, the abnormal signs [2, 6] was “no abnormal signs” and the growth curves [2, 6] was “normal”. The changes on necropsy ([2]; 250 mg/kg and 125 mg/kg i.v., day 8) was “No drug induced changes”, the signs of toxicity ([2]; 250 mg/kg i.v., 5 consecutive days) was “no signs of toxicity” and the growth curves ([2]; 500 mg/kg i.v., 5 days) was “not affected when compared to controls”. For the same compound, the “lethality or effects on growth” value ([2]; 500 mg/kg i.v., 5 days) was “no lethality of effects on the growth of the animals”, the “signs of drug effect” value ([2]; 500 mg/kg i.v., 5 days) was “twitches of the torso area, tremors of the forepaws and jumping episods; also recorded: some short lasting abnormal signs” and the duration of signs ([2]; 500 mg/kg i.v., after each of five injections) was “less than 1 hour”. For the same compound, the lethality ([2]; 1000 mg/kg i.v.) was “lethal”, the “signs of drug effect” value ([2]; 1000 mg/kg i.v.) was “severe colonic convulsions” and the time to death ([2]; 1000 mg/kg i.v., 1 male and 1 female, both died) was ≤ 10 min. For the same compound, the tolerability ([2]; i.v. in Fisher rats) was “well tolerated”, the “tolerability (conclusion)” value ([2]; rat, in vivo) was “appear to be well tolerated” and the Tumor takes ([3]; #1 25 mg/kg, day 4) was 2/5. The Tumor takes ([3]; #1 25 mg/kg, day 6) was 2/5, the Tumor takes ([3]; #1 25 mg/kg, day 8) was 3/5 and the Tumor takes ([3]; #1 25 mg/kg, day 10) was 4/5. For the same compound, the Tumor takes ([3]; #1 50 mg/kg, day 4) was 3/5, the Tumor takes ([3]; #1 50 mg/kg, day 6) was 3/5 and the Tumor takes ([3]; #1 50 mg/kg, day 8) was 3/5. The Tumor takes ([3]; #1 50 mg/kg, day 10) was 3/5, the Tumor takes ([3]; CY 100 mg/kg + #1 50 mg/kg, day 4) was 4/5 and the Tumor takes ([3]; CY 100 mg/kg + #1 50 mg/kg, day 6) was 5/5. For the same compound, the Tumor takes ([3]; CY 100 mg/kg + #1 50 mg/kg, day 8) was 5/5, the Tumor takes ([3]; CY 100 mg/kg + #1 50 mg/kg, day 10) was 5/5 and the “T (ConA) mitogenic proliferation” value [4] was 2 - 4 ×. For the same compound, the “CD8+ CD45+ (mean)” value ([5]; 5 FU + cpd #1 25 mg/kg) was 10.11, the “NK+ (mean)” value ([5]; 5 FU + cpd #1 25 mg/kg) was 3.58 and the “CD8+ CD45+ (mean)” value ([5]; 5 FU + cpd #1 50 mg/kg) was 8.65. For the same compound, the “NK+ (mean)” value ([5]; 5 FU + cpd #1 50 mg/kg) was 4.12.
